Source: patent US10307426B2, “Therapeutic compounds and compositions, and methods of use thereof” (Genentech, Inc., priority 2018, dated 2019)
Read-outs that look alike come from different tables or passages of the source.

Tests used:
[1] = test system: JAK1-dependent STAT6 phosphorylation downstream of IL-13 stimulation in BEAS-2B human bronchial epithelial cells; test: JAK1 pathway assay in cell lines: IL-13 stimulated STAT6 phosphorylation in BEAS-2B cells (MSD); format: cell-based; details: 1 hr compound incubation, IL-13 stimulation 15 min, read-out: IL-13 p-STAT6 BEAS-2B IC50
Method: Inhibitor potency (EC50) was determined in cell-based assays designed to measure JAK1 dependent STAT phosphorylation. As noted above, inhibition of IL-4, IL-13, and IL-9 signaling by blocking the Jak/Stat signaling pathway can alleviate asthmatic symptoms in pre-clinical lung inflammation models (Mathew et al., 2001, J Exp Med 193(9): 1087-1096; Kudlacz et. al., 2008, Eur J. Pharmacol 582(1-3): 154-161).
In one assay approach, TF-1 human erythroleukemia cells obtained from the American Type Culture Collection (ATCC; Manassas, Va.) were used to measure JAK1-dependent STAT6 phosphorylation downstream of IL-13 stimulation. Prior to use in the assays, TF-1 cells were starved of GM-CSF overnight in OptiMEM medium (Life Technologies, Grand Island, N.Y.) supplemented with 0.5% charcoal/dextran stripped fetal bovine serum (FBS), 0.1 mM non-essential amino acids (NEAA), and 1 mM sodium pyruvate. The assays were run in 384-well plates in serum-free OptiMEM medium using 300,000 cells per well. In a second assay approach, BEAS-2B human bronchial epithelial cells obtained from ATCC were plated at 100,000 cells per well of a 96-well plate one day prior to the experiment. The BEAS-2B assay was run in complete growth medium (bronchial epithelial basal medium plus bulletkit; Lonza; Basel, Switzerland).
Test compounds were serially diluted 1:2 in DMSO and then diluted 1:50 in medium just before use. Diluted compounds were added to the cells, for a final DMSO concentration of 0.2%, and incubated for 30 min (for the TF-1 assay) or 1 hr (for the BEAS-2B assay) at 37° C. Then, cells were stimulated with human recombinant cytokine at their respective EC90 concentrations, as previously determined for each individual lot. Cells were stimulated with IL-13 (R&D Systems, Minneapolis, Minn.) for 15 min at 37° C. The TF-1 cell reactions were stopped by the direct addition of 10× lysis buffer (Cell Signaling Technologies, Danvers, Mass.), whereas the BEAS-2B cell incubations were halted by the removal of medium and addition of 1× lysis buffer. The resultant samples were frozen in the plates at −80° C. Compound mediated inhibition of STAT6 phosphorylation was measured in the cell lysates using MesoScale Discovery (MSD) technology (Gaithersburg, Md.). EC50 values were determined as the concentration of compound required for 50% inhibition of STAT phosphorylation relative to that measured for the DMSO control.

[2] = biological target: isolated recombinant JAK2 kinase domain (Homo sapiens (Human), UniProt O60674); test: JAK2 enzyme assay (Caliper LabChip, peptide phosphorylation, Ki); format: biochemical; details: 0.2 nM JAK2, ATP 25 μM, Morrison tight binding model
Method: (§1) The activity of the isolated recombinant JAK1 and JAK2 kinase domain was measured by monitoring phosphorylation of a peptide derived from JAK3 (Val-Ala-Leu-Val-Asp-Gly-Tyr-Phe-Arg-Leu-Thr-Thr, fluorescently labeled on the N-terminus with 5-carboxyfluorescein) using the Caliper LabChip® technology (Caliper Life Sciences, Hopkinton, Mass.). […] Reactions were incubated at 22° C. in 384-well polypropylene microtiter plates for 30 minutes and then stopped by addition of 25 μL of an EDTA containing solution (100 mM HEPES buffer (pH 7.2), 0.015% Brij-35, 150 mM EDTA), resulting in a final EDTA concentration of 50 mM. After termination of the kinase reaction, the proportion of phosphorylated product was determined as a fraction of total peptide substrate using the Caliper LabChip® 3000 according to the manufacturer's specifications. Ki values were then determined using the Morrison tight binding model (Morrison, J. F., Biochim. Biophys. Acta. 185:269-296 (1969); William, J. W. and Morrison, J. F., Meth. Enzymol., 63:437-467 (1979)) modified for ATP-competitive inhibition [Ki=Ki,app/(1+[ATP]/Km,app)].

[3] = biological target: isolated recombinant JAK1 kinase domain (Homo sapiens (Human), UniProt P23458); test: JAK1 enzyme assay (Caliper LabChip, peptide phosphorylation, Ki); format: biochemical; details: 1.5 nM JAK1, ATP 25 μM, Morrison tight binding model
Method: as §1

isolated recombinant JAK1 kinase domain, sequence (P23458 875-1153): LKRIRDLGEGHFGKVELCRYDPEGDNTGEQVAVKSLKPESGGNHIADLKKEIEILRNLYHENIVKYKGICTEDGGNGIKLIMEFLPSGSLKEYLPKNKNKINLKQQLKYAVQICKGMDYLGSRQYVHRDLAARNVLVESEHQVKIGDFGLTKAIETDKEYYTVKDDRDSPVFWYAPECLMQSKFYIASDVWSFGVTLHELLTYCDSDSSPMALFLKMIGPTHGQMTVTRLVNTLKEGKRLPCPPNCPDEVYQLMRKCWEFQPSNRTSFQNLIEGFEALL
isolated recombinant JAK2 kinase domain, sequence (O60674 849-1124): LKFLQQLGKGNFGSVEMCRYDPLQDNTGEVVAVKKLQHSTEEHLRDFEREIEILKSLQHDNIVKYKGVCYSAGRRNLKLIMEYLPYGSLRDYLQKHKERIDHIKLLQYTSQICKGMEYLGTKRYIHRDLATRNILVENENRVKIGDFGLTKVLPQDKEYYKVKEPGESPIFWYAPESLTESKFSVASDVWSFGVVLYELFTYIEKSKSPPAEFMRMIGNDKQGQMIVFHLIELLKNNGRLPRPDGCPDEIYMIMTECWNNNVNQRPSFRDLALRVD

SMILES: CN(C)C(=O)Cn1cc(NC(=O)c2cnn3cccnc23)c(-c2cc(C(F)CF)ccc2OC(F)F)n1 (single isomer, unassigned) [Example 4]
- IC50 [1]: 83.8 nM
- Ki [2]: 3.26 nM
- Ki [3]: 5.84 nM

SMILES: CN(C)C(=O)Cn1cc(NC(=O)c2cnn3cccnc23)c(-c2cc(C(F)CF)ccc2OC(F)F)n1 (single isomer, unassigned) [Example 5]
- IC50 [1]: 6.7 nM
- Ki [2]: 0.38 nM
- Ki [3]: 0.17 nM

SMILES: CC(C(=O)N(C)C)n1cc(NC(=O)c2cnn3cccnc23)c(-c2cc(Cl)ccc2OC(F)F)n1 (single isomer, unassigned) [Example 10]
- IC50 [1]: 16.6 nM
- Ki [2]: 0.83 nM
- Ki [3]: 0.41 nM

SMILES: CC(C(=O)N(C)C)n1cc(NC(=O)c2cnn3cccnc23)c(-c2cc(Cl)ccc2OC(F)F)n1 (single isomer, unassigned) [Example 11]
- IC50 [1]: 41.8 nM
- Ki [2]: 1.26 nM
- Ki [3]: 0.58 nM

SMILES: CN(C)C(=O)Cn1cc(NC(=O)c2cnn3cccnc23)c(-c2cc([C@@H]3C[C@H]3C#N)ccc2OC(F)F)n1 [Example 1, N-(3-(5-((1R,2R)-2-cyanocyclopropyl)-2-(difluoromethoxy)phenyl)-1-(2-(dimethylamino)-2-oxoethyl)-1H-pyrazol-4-yl)pyrazolo[1,5-a]pyrimidine-3-carboxamide]
- IC50 ([1]; Homo sapiens, BEAS-2B): 9.9 nM
- Ki [2]: 0.61 nM
- Ki [3]: 0.25 nM

SMILES: CN(C)C(=O)Cn1cc(NC(=O)c2cnn3cccnc23)c(-c2cc(I)ccc2OC(F)F)n1 [Example 2, N-[3-[2-(difluoromethoxy)-5-iodophenyl]-1-[(dimethylcarbamoyl)methyl]-1H-pyrazol-4-yl]pyrazolo[1,5-a]pyrimidine-3-carboxamide]
- IC50 ([1]; Homo sapiens, BEAS-2B): 6 nM
- Ki [2]: 0.17 nM
- Ki [3]: 0.25 nM

SMILES: CN(C)C(=O)Cn1cc(NC(=O)c2c(N)nn3cccnc23)c(-c2cc(Cl)ccc2OC(F)F)n1 [Example 3, 2-amino-N-(3-(5-chloro-2-(difluoromethoxy)phenyl)-1-(2-(dimethylamino)-2-oxoethyl)-1H-pyrazol-4-yl)pyrazolo[1,5-a]pyrimidine-3-carboxamide]
- IC50 ([1]; Homo sapiens, BEAS-2B): 10.3 nM
- Ki [2]: 0.77 nM
- Ki [3]: 0.34 nM

SMILES: CN(C)C(=O)Cn1cc(NC(=O)c2cnn3cccnc23)c(-c2cc(C(F)F)ccc2OC(F)F)n1 [Example 6, N-(3-(2-(difluoromethoxy)-5-(difluoromethyl)phenyl)-1-(2(dimethylamino)-2-oxoethyl)-1H-pyrazol-4-yl)pyrazolo[1,5-a]pyrimidine-3-carboxamide]
- IC50 ([1]; Homo sapiens, BEAS-2B): 9.9 nM
- Ki [2]: 0.25 nM
- Ki [3]: 0.15 nM

SMILES: CN(C)C(=O)Cn1cc(NC(=O)c2cnn3cccnc23)c(-c2cc(CC(F)F)ccc2OC(F)F)n1 [Example 7, N-(3-(5-(2,2-difluoroethyl)-2-(difluoromethoxy)phenyl)-1-(2-(dimethylamino)-2-oxoethyl)-1H-pyrazol-4-yl)pyrazolo[1,5-a]pyrimidine-3-carboxamide]
- IC50 ([1]; Homo sapiens, BEAS-2B): 28.9 nM
- Ki [2]: 1.15 nM
- Ki [3]: 0.52 nM

SMILES: CN(C)C(=O)Cn1cc(NC(=O)c2cnn3cccnc23)c(-c2cc(Oc3ccc(C(=O)N(C)C)cc3)ccc2OC(F)F)n1 [Example 8, N-(3-(2-(difluoromethoxy)-5-(4-(dimethylcarbamoyl)phenoxy)phenyl)-1-(2-(dimethylamino)-2-oxoethyl)-1H-pyrazol-4-yl)pyrazolo[1,5-a]pyrimidine-3-carboxamide]
- IC50 ([1]; Homo sapiens, BEAS-2B): 43.9 nM
- Ki [2]: 1.81 nM
- Ki [3]: 0.83 nM

SMILES: CN(C)C(=O)Cn1cc(NC(=O)c2cnn3cccnc23)c(-c2cc(CCF)ccc2OC(F)F)n1 [Example 9, N-(3-(2-(difluoromethoxy)-5-(2-fluoroethyl)phenyl)-1-(2-(dimethylamino)-2-oxoethyl)-1H-pyrazol-4-yl)pyrazolo[1,5-a]pyrimidine-3-carboxamide]
- IC50 ([1]; Homo sapiens, BEAS-2B): 269 nM
- Ki [2]: 1.92 nM
- Ki [3]: 0.97 nM

SMILES: CN(C)C(=O)Cn1cc(NC(=O)c2cnn3cccnc23)c(-c2cc(Oc3ccc4c(c3)CNCC4)ccc2OC(F)F)n1 [Example 12, N-(3-(2-(difluoromethoxy)-5-((1,2,3,4-tetrahydroisoquinolin-7-yl)oxy)phenyl)-1-(2-(dimethylamino)-2-oxoethyl)-1H-pyrazol-4-yl)pyrazolo[1,5-a]pyrimidine-3-carboxamide]
- IC50 ([1]; Homo sapiens, BEAS-2B): 29.8 nM
- Ki [2]: 0.75 nM
- Ki [3]: 0.27 nM

SMILES: C=Cc1ccc(OC(F)F)c(-c2nn(CC(=O)N(C)C)cc2NC(=O)c2cnn3cccnc23)c1 [Example 13, N-(3-(2-(difluoromethoxy)-5-vinylphenyl)-1-(2-(dimethylamino)-2-oxoethyl)-1H-pyrazol-4-yl)pyrazolo[1,5-a]pyrimidine-3-carboxamide]
- IC50 ([1]; Homo sapiens, BEAS-2B): 24.1 nM
- Ki [2]: 1.17 nM
- Ki [3]: 0.51 nM

SMILES: CN(C)C(=O)Cn1cc(NC(=O)c2cnn3cccnc23)c(-c2cc(C3CC3)ccc2OC(F)F)n1 [Example 14, N-(3-(5-cyclopropyl-2-(difluoromethoxy)phenyl)-1-(2-(dimethylamino)-2-oxoethyl)-1H-pyrazol-4-yl)pyrazolo[1,5-a]pyrimidine-3-carboxamide]
- IC50 ([1]; Homo sapiens, BEAS-2B): 47.3 nM
- Ki [2]: 1.99 nM
- Ki [3]: 0.8 nM

SMILES: CN(C)C(=O)Cn1cc(NC(=O)c2cnn3cccnc23)c(-c2cc(Br)ccc2OC(F)F)n1 [Example 15, N-(3-(5-bromo-2-(difluoromethoxy)phenyl)-1-(2-(dimethylamino)-2-oxoethyl)-1H-pyrazol-4-yl)pyrazolo[1,5-a]pyrimidine-3-carboxamide]
- IC50 ([1]; Homo sapiens, BEAS-2B): 14.3 nM
- Ki [2]: 0.43 nM
- Ki [3]: 0.32 nM

SMILES: CN(C)C(=O)Cn1cc(NC(=O)c2cnn3cccnc23)c(-c2cc(Cl)ccc2OC(F)F)n1 [Example 16, N-(3-(5-chloro-2-(difluoromethoxy)phenyl)-1-(2-(dimethylamino)-2-oxoethyl)-1H-pyrazol-4-yl)pyrazolo[1,5-a]pyrimidine-3-carboxamide]
- IC50 ([1]; Homo sapiens, BEAS-2B): 33.4 nM
- Ki [2]: 1.02 nM
- Ki [3]: 0.65 nM

SMILES: CN(C)C(=O)Cn1cc(NC(=O)c2cnn3cccnc23)c(-c2cc(OC(F)F)ccc2OC(F)F)n1 [Example 17, N-(3-(2,5-bis(difluoromethoxy)phenyl)-1-(2-(dimethylamino)-2-oxoethyl)-1H-pyrazol-4-yl)pyrazolo[1,5-a]pyrimidine-3-carboxamide]
- IC50 ([1]; Homo sapiens, BEAS-2B): 14.1 nM
- Ki [2]: 0.72 nM
- Ki [3]: 0.26 nM

SMILES: CN1CC(O)(c2cccc(Oc3ccc(OC(F)F)c(-c4nn(CC(=O)N(C)C)cc4NC(=O)c4cnn5cccnc45)c3)c2)C1 [Example 18, N-(3-(2-(difluoromethoxy)-5-(3-(3-hydroxy-1-methylazetidin-3-yl)phenoxy)phenyl)-1-(2-(dimethylamino)-2-oxoethyl)-1H-pyrazol-4-yl)pyrazolo[1,5-a]pyrimidine-3-carboxamide]
- IC50 ([1]; Homo sapiens, BEAS-2B): 285 nM
- Ki [2]: 1.56 nM
- Ki [3]: 3.18 nM
